Laboratory results published in patent US4418068A, “Antiestrogenic and antiandrugenic benzothiophenes” (Eli Lilly and Company, priority 1981, dated 1983).

Columns and labels:
[1] = system: estrogenic response of estradiol; assay: Antiestrogenic Test, mature ovariectomized mice (uterine weight); assay type: in vivo, adult ovariectomized mice; conditions: Experiment A, s.c. + estradiol 0.3 mcg.
Method: (§1) This test was conducted with immature 40-45 g. female rats, immature 11-13 g. mice, and adult ovariectomized mice. The rats were tested in groups of six, and mice in groups of ten. All of the laboratory animals were from standardized strains and were equilibrated to the laboratory before the test started. Each test was begun by administering the test compound daily for three days, as a subcutaneous injection or by oral gavage, as indicated below in the reports of individual experiments.
(§2) The test animals were treated for three days and sacrificed on the fourth day, and the uteri were removed, freed of extraneous tissue, and blotted with paper towels. The uteri were weighed to the nearest 0.1 mg.
(§3) The uterine weights are given, in mg., as the means of all of the organ weights of the animals in a group. Compounds are referred to by their example numbers above.
(§4) The same standardized types of laboratory animals which were used in the experiments described above were also used in these experiments. […] Untreated control animals were used in each experiment. […] The dosage and sacrifice schedule, and the method of determining uterine weights and reporting data, were the same as the methods described above under Test 1.

[2] = system: estrogenic response; assay: Estrogenic Response Test, immature rats (uterine weight); assay type: in vivo, immature 40-45 g. female rats
Method: The first test reported below is used to determine the estrogenic potency of compounds. It is well known that many compounds having antiestrogenic activity also, typically, have estrogenic activity. As has been explained, estrogenic activity is a liability in an antiestrogen, and thus it is important to identify antiestrogens having a minimum amount of estrogenic activity. This test was conducted with immature 40-45 g. female rats, immature 11-13 g. mice, and adult ovariectomized mice. The rats were tested in groups of six, and mice in groups of ten. All of the laboratory animals were from standardized strains and were equilibrated to the laboratory before the test started. Each test was begun by administering the test compound daily for three days, as a subcutaneous injection or by oral gavage, as indicated below in the reports of individual experiments. Untreated control animals were included in each experiment, along with animals to which estradiol was administered subcutaneously. The estradiol-treated animals provided positive controls, showing the physiological effect of a potent estrogen on the individual group of animals used in the experiment. […] The test animals were treated for three days and sacrificed on the fourth day, and the uteri were removed, freed of extraneous tissue, and blotted with paper towels. The uteri were weighed to the nearest 0.1 mg. The tables below report the results of representative experiments. The doses of estradiol and of the compound of this invention are given as the total of the three daily doses. The uterine weights are given, in mg., as the means of all of the organ weights of the animals in a group. Compounds are referred to by their example numbers above.

[3] = system: androgen-stimulated prostate growth; assay: Anti-Androgen Test, immature male rats (ventral prostate weight); assay type: in vivo
Method: The animals used in this test were adult male rats having a body weight which averaged about 330 g. when the experiment ended. All of the animals to be used in the experiment were castrated by the scrotal route, and were held untreated for 3 days. On the fourth day, subcutaneous administration of 0.1 mg./day of an exogenous androgen, testosterone propionate, was begun, and was continued for seven consecutive days. An untreated control group of animals received injections of 0.1 ml./day of corn oil as a blank treatment. The compound of this invention was administered orally or subcutaneously to the treated animals in 0.1 ml. of corn oil, at the same time that the androgen was administered. The animals were sacrificed 24 hours after the last injection of testosterone propionate, the ventral prostate glands were removed and weighed, and the mean of the weights of each treatment group was reported.
This experiment was carried out in the same manner as Experiment A above, except that the test animals were immature male rats, weighing about 120 g. each at sacrifice. Each treatment group consisted of six or seven animals. All treatments in this experiment were administered by subcutaneous injection. The amount of the androgen administered was only 20 mcg./day because of the small size of the animals.
This experiment was also conducted in immature rats having average body weight of about 115 g. when the experiment ended. In other respects, the experiment was as described under Experiment B above. The treatment groups consisted of ten animals each, except for the androgen only group, of 16 animals, and the 5 mg./kg. group, of nine animals.

[4] = system: estrogenic response of estradiol; assay: Antiestrogenic Test, immature rats (uterine weight); assay type: in vivo
Method: as §1, §2, §3, §4

[5] = system: DMBA-induced mammary tumors; assay: Tests Against DMBA-Induced mammary tumors; assay type: in vivo, adult female virgin rats
Description: Mammary tumors were induced in adult female virgin rats by a single 20-mg. oral dose of 7,12-dimethylbenzanthracene. Within about six weeks, visible and palpable tumors were present in the mammary tissue of the rats, and the rats were allocated into treatment and control groups in such a way that each group contained animals having approximately the same size and number of tumors. The size of the tumors was estimated by measuring their cross-sectional area. […]
[…] The treated animals received 1 mg./kg. per day of 6-methoxy-2-(4-hydroxyphenyl)-3-[4-(2-piperidinoethoxy)benzoyl]benzo[b]thiophene, hydrochloride, as a subcutaneous injection in corn oil. The animals were not ovariectomized at the end of the experiment.

[6] = Experiment B, 20 mg./kg./day, orally, four weeks
[7] = Experiment C, low dose 20 mg./kg./day, four weeks

Compound: O=C(c1ccc(OCCN2CCCCC2)cc1)c1c(-c2ccc(O)cc2)sc2cc(O)ccc12 [Example 3, 6-hydroxy-2-(4-hydroxyphenyl)-3-[4-(2-piperidinoethoxy)benzoyl]benzo[b]thiophene]
- Uterine weight ([1]; 3 mg.): 21.3 mg
- Uterine weight ([1]; 0.3 mcg.): 54.9 mg
- Uterine weight ([1]; 3 mcg.): 48.7 mg
- Uterine weight ([1]; 30 mcg.): 31.1 mg
- Uterine weight ([1]; 300 mcg.): 22.1 mg
- Uterine weight ([2]; Experiment A, total dose 3 mg., s.c.): 33.9 mg
- Uterine weight ([2]; Experiment A, total dose 3 mcg., s.c.): 47.7 mg
- Uterine weight ([2]; Experiment A, total dose 30 mcg., s.c.): 38.4 mg
- Uterine weight ([2]; Experiment A, total dose 300 mcg., s.c.): 35.9 mg
- Uterine weight ([2]; Experiment B, total dose 3 mcg., oral (first line)): 34.5 mg
- Uterine weight ([2]; Experiment B, total dose 30 mcg., oral): 34.4 mg
- Uterine weight ([2]; Experiment B, total dose 300 mcg., oral): 33.2 mg
- Uterine weight ([2]; Experiment B, total dose printed 3 mcg., oral (last line)): 34.4 mg
- Mean Prostate Weight ([3]; Experiment B, 0.5 mg./kg./day s.c. + androgen 20 mcg./day): 33.8 mg
- average prostate weight, one animal excluded ([3]; Experiment B, 0.5 mg./kg./day s.c. + androgen, animal with 54 mg. prostate excluded): 30.5
- Mean Prostate Weight ([3]; Experiment B, 5 mg./kg./day s.c. + androgen 20 mcg./day): 36.6 mg
- Mean Prostate Weight ([3]; Experiment C, 0.05 mg./kg./day s.c. + androgen): 34.0 mg
- Mean Prostate Weight ([3]; Experiment C, 0.5 mg./kg./day s.c. + androgen): 31.1 mg
- Mean Prostate Weight ([3]; Experiment C, 5 mg./kg./day s.c. + androgen): 29.0 mg
- Uterine weight ([4]; Experiment C, 3 mg., oral + estradiol 0.3 mcg., s.c.): 30.6 mg
- Uterine weight ([4]; Experiment C, 3 mcg., oral + estradiol 0.3 mcg., s.c.): 55.0 mg
- Uterine weight ([4]; Experiment C, 30 mcg., oral + estradiol 0.3 mcg., s.c.): 46.7 mg
- Uterine weight ([4]; Experiment C, 300 mcg., oral + estradiol 0.3 mcg., s.c.): 31.3 mg
- Uterine weight ([4]; Experiment D, 3 mg., s.c. + estradiol 0.3 mcg.): 28.0 mg
- Uterine weight ([4]; Experiment D, 3 mcg., s.c. + estradiol 0.3 mcg.): 53.6 mg
- Uterine weight ([4]; Experiment D, 30 mcg., s.c. + estradiol 0.3 mcg.): 33.7 mg
- Uterine weight ([4]; Experiment D, 300 mcg., s.c. + estradiol 0.3 mcg.): 30.7 mg
- Uterine weight ([4]; Experiment E, 3 mg., s.c. + estradiol 0.09 mcg.): 31.0 mg
- Uterine weight ([4]; Experiment E, 3 mcg., s.c. + estradiol 0.09 mcg.): 42.5 mg
- Uterine weight ([4]; Experiment E, 30 mcg., s.c. + estradiol 0.09 mcg.): 35.8 mg
- Uterine weight ([4]; Experiment E, 300 mcg., s.c. + estradiol 0.09 mcg.): 33.7 mg
- Uterine weight ([4]; Experiment F, 3 mg., s.c. + estradiol 0.15 mcg.): 36.2 mg
- Uterine weight ([4]; Experiment F, 3 mcg., s.c. + estradiol 0.15 mcg.): 49.4 mg
- Uterine weight ([4]; Experiment F, 30 mcg., s.c. + estradiol 0.15 mcg.): 40.9 mg
- Uterine weight ([4]; Experiment F, 300 mcg., s.c. + estradiol 0.15 mcg.): 36.5 mg
- Uterine weight ([4]; Experiment G, 3 mg., s.c. + estradiol 3 mcg.): 30.2 mg
- Uterine weight ([4]; Experiment G, 3 mcg., s.c. + estradiol 3 mcg.): 71.9 mg
- Uterine weight ([4]; Experiment G, 30 mcg., s.c. + estradiol 3 mcg.): 42.2 mg
- Uterine weight ([4]; Experiment G, 300 mcg., s.c. + estradiol 3 mcg.): 33.7 mg
- Uterine weight ([4]; Experiment H, 3 mg., s.c. + estradiol 30 mcg.): 33.1 mg
- Uterine weight ([4]; Experiment H, 3 mcg., s.c. + estradiol 30 mcg.): 92.7 mg
- Uterine weight ([4]; Experiment H, 30 mcg., s.c. + estradiol 30 mcg.): 60.2 mg
- Uterine weight ([4]; Experiment H, 300 mcg., s.c. + estradiol 30 mcg.): 48.9 mg
- average total cross-sectional area of tumor ([5]; Experiment A, oral 0.1, 5, 10, 20 mg./kg./day in successive two-week periods, 8 weeks): 345 square millimeters
- total cross-sectional area of tumor, lower end of range ([5]; Experiment A, oral, 8 weeks): complete regression
- total cross-sectional area of tumor, upper end of range ([5]; Experiment A, oral, 8 weeks, one animal, tumors not estrogen-dependent): ≤ 1550 sq. mm.
- animals with completely regressed tumors [5, 6]: one of the compound-treated animals had completely regressed
- average total tumor area [5, 6]: 152 square millimeters
- growth of the large tumor (668 square millimeters) ([5]; Experiment B, 20 mg./kg./day, orally, since second week, shrank after ovariectomy): its growth had been checked, and it had not significantly grown
- average tumor area ([5]; Experiment C, high dose 40 mg./kg./day, four weeks): 304 square millimeters
- average cross-sectional tumor area [5, 7]: 441 square millimeters
- tumor area, lower end of range [5, 7]: no tumors present
- tumor area, upper end of range [5, 7]: ≤ 1907 square millimeters
